In ChEMBL document CHEMBL5465560, “Selectivity Literature for EUbOPEN Chemogenomic Library” (2024):

Key:
[1] = target: T1, Serine/threonine-protein kinase Nek5 (Homo sapiens) (UniProt Q6P3R8); assay: Selectivity interaction (KinomeScan (DiscoverX)) EUB0001079a NEK5; conditions: at 1 µM
T1 sequence (whole entry): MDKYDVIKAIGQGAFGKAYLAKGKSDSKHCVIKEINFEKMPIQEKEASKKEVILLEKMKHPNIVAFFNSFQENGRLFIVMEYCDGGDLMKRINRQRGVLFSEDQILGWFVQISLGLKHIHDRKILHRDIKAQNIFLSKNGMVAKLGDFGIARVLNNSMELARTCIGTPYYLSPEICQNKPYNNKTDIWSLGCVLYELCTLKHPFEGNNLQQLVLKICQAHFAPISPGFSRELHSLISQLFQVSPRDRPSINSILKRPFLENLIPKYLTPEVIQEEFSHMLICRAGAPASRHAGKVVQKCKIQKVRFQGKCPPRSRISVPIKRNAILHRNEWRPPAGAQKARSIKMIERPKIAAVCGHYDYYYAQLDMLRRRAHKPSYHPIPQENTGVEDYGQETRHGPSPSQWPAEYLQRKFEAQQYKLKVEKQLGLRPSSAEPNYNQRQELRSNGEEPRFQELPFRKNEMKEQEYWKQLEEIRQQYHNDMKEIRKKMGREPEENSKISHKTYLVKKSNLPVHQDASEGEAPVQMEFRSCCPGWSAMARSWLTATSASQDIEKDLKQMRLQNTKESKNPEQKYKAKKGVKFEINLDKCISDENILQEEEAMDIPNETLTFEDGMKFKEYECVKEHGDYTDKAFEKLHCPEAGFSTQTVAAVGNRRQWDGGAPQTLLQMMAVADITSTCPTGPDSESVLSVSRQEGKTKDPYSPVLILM

[2] = target: Phosphorylase b kinase gamma catalytic chain, skeletal muscle/heart isoform (Homo sapiens) (UniProt Q16816); conditions: at 10 µM
Chain of Phosphorylase b kinase gamma catalytic chain, skeletal muscle/heart isoform (Homo sapiens) (Q16816 whole entry, looked up, canonical isoform): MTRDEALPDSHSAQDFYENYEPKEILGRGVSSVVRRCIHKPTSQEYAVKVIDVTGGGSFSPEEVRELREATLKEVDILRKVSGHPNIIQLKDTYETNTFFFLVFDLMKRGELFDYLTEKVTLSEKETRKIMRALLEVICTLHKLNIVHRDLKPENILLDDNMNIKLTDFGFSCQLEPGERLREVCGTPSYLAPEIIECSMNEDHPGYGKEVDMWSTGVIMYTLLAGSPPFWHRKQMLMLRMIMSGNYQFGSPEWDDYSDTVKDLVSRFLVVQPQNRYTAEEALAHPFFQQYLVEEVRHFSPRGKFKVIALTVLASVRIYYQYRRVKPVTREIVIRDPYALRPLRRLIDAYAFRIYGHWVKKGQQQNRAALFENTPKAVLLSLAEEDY

[3] = target: Fibroblast growth factor receptor 2 (Homo sapiens) (UniProt P21802); assay: Selectivity interaction (KinomeScan (DiscoverX)) EUB0000092b FGFR2; conditions: at 10 µM
Chain of Fibroblast growth factor receptor 2 (Homo sapiens) (P21802 22-821 limits assumed): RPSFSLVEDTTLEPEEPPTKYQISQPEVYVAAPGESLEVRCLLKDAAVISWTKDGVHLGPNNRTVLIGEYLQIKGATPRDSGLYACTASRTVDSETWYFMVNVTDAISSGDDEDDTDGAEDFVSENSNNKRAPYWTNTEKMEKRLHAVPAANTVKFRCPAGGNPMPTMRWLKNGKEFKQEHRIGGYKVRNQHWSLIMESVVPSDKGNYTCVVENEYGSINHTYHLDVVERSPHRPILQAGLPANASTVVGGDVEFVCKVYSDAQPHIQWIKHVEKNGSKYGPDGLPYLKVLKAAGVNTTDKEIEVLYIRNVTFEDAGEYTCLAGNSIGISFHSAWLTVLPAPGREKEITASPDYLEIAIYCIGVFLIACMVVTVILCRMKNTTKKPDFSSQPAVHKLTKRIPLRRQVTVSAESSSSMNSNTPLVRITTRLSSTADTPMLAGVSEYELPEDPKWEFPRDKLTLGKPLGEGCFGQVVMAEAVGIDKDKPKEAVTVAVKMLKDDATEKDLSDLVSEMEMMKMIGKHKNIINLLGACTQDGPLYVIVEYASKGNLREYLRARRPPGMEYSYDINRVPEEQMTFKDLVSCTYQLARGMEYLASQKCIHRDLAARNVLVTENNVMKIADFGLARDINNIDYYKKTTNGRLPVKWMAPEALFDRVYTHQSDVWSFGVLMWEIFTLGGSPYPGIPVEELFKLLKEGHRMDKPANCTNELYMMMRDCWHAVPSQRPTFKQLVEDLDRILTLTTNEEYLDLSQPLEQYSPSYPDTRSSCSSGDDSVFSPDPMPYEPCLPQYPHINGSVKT

[4] = target: T2, Inhibitor of nuclear factor kappa-B kinase subunit alpha (Homo sapiens) (UniProt O15111); assay: Selectivity interaction (Ambit KINOMEscan and KiNATiv profiling in Jurkat cells) EUB0000090b CHUK; format: cell-based; conditions: at 1 µM
T2 sequence (whole entry): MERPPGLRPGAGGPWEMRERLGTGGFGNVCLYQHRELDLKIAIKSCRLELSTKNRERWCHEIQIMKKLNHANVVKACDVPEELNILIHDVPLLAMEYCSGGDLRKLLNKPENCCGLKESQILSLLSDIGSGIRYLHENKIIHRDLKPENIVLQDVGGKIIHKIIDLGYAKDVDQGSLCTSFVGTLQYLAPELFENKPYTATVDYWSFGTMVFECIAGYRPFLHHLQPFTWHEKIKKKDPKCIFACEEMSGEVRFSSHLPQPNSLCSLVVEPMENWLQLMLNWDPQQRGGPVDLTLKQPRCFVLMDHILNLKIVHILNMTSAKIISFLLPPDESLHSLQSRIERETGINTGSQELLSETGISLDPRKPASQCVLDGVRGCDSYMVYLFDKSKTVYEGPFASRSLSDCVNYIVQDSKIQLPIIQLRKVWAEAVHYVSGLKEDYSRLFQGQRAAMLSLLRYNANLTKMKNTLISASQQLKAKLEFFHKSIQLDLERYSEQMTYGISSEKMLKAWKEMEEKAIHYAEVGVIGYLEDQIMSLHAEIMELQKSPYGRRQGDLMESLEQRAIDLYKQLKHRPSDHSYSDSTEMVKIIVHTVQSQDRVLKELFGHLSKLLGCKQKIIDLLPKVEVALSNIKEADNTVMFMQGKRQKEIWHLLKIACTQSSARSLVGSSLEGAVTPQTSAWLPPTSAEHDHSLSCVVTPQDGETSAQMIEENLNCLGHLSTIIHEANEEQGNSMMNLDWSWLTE

[5] = target: T3, Non-receptor tyrosine-protein kinase TNK1 (Homo sapiens) (UniProt Q13470); assay: Selectivity interaction (Ambit KINOMEscan and KiNATiv profiling in Jurkat cells) EUB0000090b TNK1; format: cell-based; conditions: at 1 µM
T3 sequence (whole entry): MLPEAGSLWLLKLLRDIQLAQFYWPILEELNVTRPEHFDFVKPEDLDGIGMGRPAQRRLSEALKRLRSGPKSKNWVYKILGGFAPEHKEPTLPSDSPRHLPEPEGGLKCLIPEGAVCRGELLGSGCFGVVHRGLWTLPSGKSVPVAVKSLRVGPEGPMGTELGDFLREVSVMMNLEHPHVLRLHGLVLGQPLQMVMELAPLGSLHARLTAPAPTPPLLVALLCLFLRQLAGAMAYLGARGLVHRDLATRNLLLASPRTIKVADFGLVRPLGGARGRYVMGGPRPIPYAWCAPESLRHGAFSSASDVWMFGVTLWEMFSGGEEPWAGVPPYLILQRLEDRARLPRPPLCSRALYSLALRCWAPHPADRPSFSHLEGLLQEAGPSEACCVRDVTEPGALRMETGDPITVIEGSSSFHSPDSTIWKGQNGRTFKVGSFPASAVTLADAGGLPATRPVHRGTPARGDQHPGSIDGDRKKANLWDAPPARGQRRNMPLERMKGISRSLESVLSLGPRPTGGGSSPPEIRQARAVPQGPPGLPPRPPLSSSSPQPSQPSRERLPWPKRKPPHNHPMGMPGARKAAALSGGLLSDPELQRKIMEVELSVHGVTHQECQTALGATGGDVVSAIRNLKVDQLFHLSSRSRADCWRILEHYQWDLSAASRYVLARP

[6] = target: Tyrosine-protein kinase Fyn (Homo sapiens) (UniProt P06241); assay: Selectivity interaction (ActivX KiNativ screen (ex vivo kinase selectivity in human PBMCs)) EUB0001619a FYN; format: cell-based; conditions: PBMC, at 1 µM
Chain of Tyrosine-protein kinase Fyn (Homo sapiens) (P06241 2-537 limits assumed): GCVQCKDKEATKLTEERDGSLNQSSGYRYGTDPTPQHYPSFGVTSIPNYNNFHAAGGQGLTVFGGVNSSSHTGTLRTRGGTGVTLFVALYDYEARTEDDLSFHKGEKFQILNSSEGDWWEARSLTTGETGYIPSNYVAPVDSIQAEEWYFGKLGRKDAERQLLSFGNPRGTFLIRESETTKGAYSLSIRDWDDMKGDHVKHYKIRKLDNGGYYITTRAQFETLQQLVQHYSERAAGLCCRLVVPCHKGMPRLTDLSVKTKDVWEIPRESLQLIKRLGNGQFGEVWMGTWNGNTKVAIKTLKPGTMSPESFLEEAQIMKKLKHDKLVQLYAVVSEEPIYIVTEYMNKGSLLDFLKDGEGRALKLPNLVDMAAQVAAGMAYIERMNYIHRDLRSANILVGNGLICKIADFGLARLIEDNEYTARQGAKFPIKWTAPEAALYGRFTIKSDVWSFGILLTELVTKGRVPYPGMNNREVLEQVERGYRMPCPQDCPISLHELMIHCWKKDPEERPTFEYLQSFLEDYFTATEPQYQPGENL

[7] = target: T4, Aurora kinase A (Homo sapiens) (UniProt O14965); assay: Selectivity interaction (Kinase panel (Carna Biosciences)) EUB0001542aTs STK6; conditions: at 1 µM
T4 sequence (whole entry): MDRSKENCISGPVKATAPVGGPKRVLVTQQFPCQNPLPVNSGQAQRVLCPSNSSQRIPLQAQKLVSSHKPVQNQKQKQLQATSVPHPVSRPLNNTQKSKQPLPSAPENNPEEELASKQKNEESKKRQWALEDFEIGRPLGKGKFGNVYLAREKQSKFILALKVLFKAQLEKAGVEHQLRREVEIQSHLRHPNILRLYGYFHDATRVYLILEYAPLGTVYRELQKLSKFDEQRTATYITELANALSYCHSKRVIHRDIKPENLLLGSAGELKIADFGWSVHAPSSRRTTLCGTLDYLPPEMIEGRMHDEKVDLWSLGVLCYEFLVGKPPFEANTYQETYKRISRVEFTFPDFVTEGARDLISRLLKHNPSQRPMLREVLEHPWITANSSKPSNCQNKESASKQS

Compound: Nc1cnc(N2CCc3cc(S(=O)(=O)Nc4c(F)cc(Cl)cc4F)cc(N4CCCC4=O)c32)nc1 [TP-020n]
- % of control [1]: 100%

Compound: CCN(CC)CCCCNc1ncc2cc(-c3cc(OC)cc(OC)c3)c(NC(=O)NC(C)(C)C)nc2n1
- % of control [2]: 100%

Compound: CCC(=O)N1CCN(c2ccc(-n3c(=O)ccc4cnc5ccc(-c6cnc7ccccc7c6)cc5c43)cc2C(F)(F)F)CC1
- % of control [3]: 55%

Compound: CN(C)C/C=C/C(=O)Nc1ccc(C(=O)N2CCCC(Nc3ncc(Cl)c(-c4c[nH]c5ccccc45)n3)C2)cc1 (configuration not stated)
- % of control [4]: 100%
- % of control [5]: 96%

Compound: N#Cc1cccc(-c2c[nH]c3ncnc(N4CCOCC4)c23)c1
- % of inhibition [6]: -9%

Compound: Cn1cc(Nc2nccc(N3CC4CCC(C3)N4C(=O)[C@@H]3CC3(F)F)n2)cn1
- % of inhibition [7]: 62%
